Test results reported in patent US8697877B2, “Oxyindole derivatives with motilin receptor agonistic activity” (RaQualia Pharma Inc., priority 2009, dated 2014).

What follows are molecules tested against T1, human motilin receptor (GPR38) (Homo sapiens, UniProt O43193) (assay: GPR38 (Motilin Receptor) Functional Assay, NFAT-beta-lactamase reporter in CHO-K1 cells). Conditions: not given.
T1 construct: expressed in transfected cells; host or cells: CHO-K1
T1 sequence (O43193 whole entry): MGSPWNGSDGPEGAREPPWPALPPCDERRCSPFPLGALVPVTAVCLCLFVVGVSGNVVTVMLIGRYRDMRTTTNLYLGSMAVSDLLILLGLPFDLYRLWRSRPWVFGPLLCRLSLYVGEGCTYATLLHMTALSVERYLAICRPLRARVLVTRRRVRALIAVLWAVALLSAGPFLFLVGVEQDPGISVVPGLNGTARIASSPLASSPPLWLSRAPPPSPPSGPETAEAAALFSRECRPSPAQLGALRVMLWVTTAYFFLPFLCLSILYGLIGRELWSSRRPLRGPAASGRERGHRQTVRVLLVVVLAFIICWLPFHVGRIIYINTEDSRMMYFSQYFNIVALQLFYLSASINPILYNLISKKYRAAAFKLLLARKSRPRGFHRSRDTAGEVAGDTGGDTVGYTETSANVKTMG
Assay type: cell-based
Description: The potencies and efficacies of the compounds of this invention for GPR38 can be determined by reporter assay performed on the human cloned receptor as described herein.
GPR38 (Motilin Receptor) Functional Assay
A CHO-K1 cell line stably transfected NFAT-beta-lactamase reporter and human motilin receptor gene was used. The cells were cultured in culture medium (Dulbecco's modified eagle medium containing 10% fetal bovine serum, 1 mM sodium pyruvate, 0.1 mM MEM nonessential amino acids, 25 mM HEPES buffer, 50 units/mL penicillin, 50 microg/mL streptomycin, 100 microg/mL zeocin, and 500 microg/mL G418). The cells were harvested with 0.05% trypsin EDTA and centrifuged. The cell pellets were resuspended in the culture medium and plated into a black/clear bottom 384-well plate at a density of 8000 cells per well, then incubated at 37° C. with 5% CO2 for over night (about 20 hours). On the day of assay, the culture medium was aspirated and 20 microL of assay medium (Dulbecco's modified eagle medium containing 100 units/mL penicillin and 100 microg/mL streptomycin) was added to each well, then the cell plates were placed in incubator at 37° C. with 5% CO2 for 1.5 hours. Compounds were prepared in 100% DMSO and these were diluted to 5× of final concentration with assay buffer (Hanks balanced salt solution, 20 mM HEPES, and 0.1% BSA), then dispensed into 384-well plate (5 microL/well). After incubation at 37° C. with 5% CO2 for 4.5 hours, CCF4-AM loading solution (Invitrogen Corp.) was added to each well. After incubation for 2 hours at room temperature, fluorescence intensities were measured by using plate reader FDSS (Hamamatsu Photonics K. K.) with excitation 400 nm, emission 465 nm/540 nm. Agonistic activity (EC50) was calculated from the sigmoidal dose-response curve using GraphPad Prism software (GraphPad Software, Inc.).
In the case of `CN[C@H]1CCN(C(=O)N[C@@H](Cc2ccccc2Cl)C(=O)N2CCC(N3C(=O)C(C)(C)c4ccccc43)CC2)C1` [Example 93, (S)-N-((S)-3-(2-chloro-phenyl)-1-(4-(3,3-dimethyl-2-oxoindolin-1-yl)piperidin-1-yl)-1-oxopropan-2-yl)-3-(methylamino)pyrrolidine-1-carboxamide], the EC50 is reported as ≤ 10 nM. In the case of `CC1(C)C(=O)N(C2CCN(C(=O)[C@H](Cc3ccccc3F)NC(=O)[C@@H]3CCCNC3)CC2)c2ccccc21` [Example 83, (R)-N-((S)-1-(4-(3,3-dimethyl-2-oxoindolin-1-yl)piperidin-1-yl)-3-(2-fluorophenyl)-1-oxo-propan-2-yl)piperidine-3-carboxamide], the EC50 is reported as ≤ 10 nM. In the case of `CN[C@@H]1CC[C@H](C(=O)N[C@@H](Cc2cccc(F)c2)C(=O)N2CCC(N3C(=O)C(C)(C)c4ccccc43)CC2)C1` [Example 28, (1S,3R)-N-((S)-1-(4-(3,3-dimethyl-2-oxoindolin-1-yl)piperidin-1-yl)-3-(3-fluorophenyl)-1-oxopropan-2-yl)-3-(methylamino)cyclopentane-carboxamide], the EC50 is reported as ≤ 10 nM. For `CN1CCC[C@H]1CNC(=O)N[C@@H](CCc1ccccc1)C(=O)N1CCC(N2C(=O)C(C)(C)c3ccccc32)CC1` [Example 68, 1-((S)-1-(4-(3,3-dimethyl-2-oxo-indolin-1-yl)piperidin-1-yl)-1-oxo-4-phenylbutan-2-yl)-3-(((S)-1-methylpyrrolidin-2-yl)methyl)urea], the EC50 was ≤ 10 nM. With `CC1(C)C(=O)N(C2CCN(C(=O)[C@H](CCc3ccccc3)NC(=O)N[C@@H]3CCCNC3)CC2)c2ccccc21` [Example 49, 1-((S)-1-(4-(3,3-dimethyl-2-oxo-indolin-1-yl)piperidin-1-yl)-1-oxo-4-phenylbutan-2-yl)-3-((R)-piperidin-3-yl)urea] the EC50 was ≤ 10 nM. In the case of `CN[C@@H]1CC[C@H](C(=O)N[C@@H](CCc2ccccc2)C(=O)N2CCC(N3C(=O)C(C)(C)c4cc(F)ccc43)CC2)C1` [Example 45, (1S,3R)-N-((S)-1-(4-(5-fluoro-3,3-dimethyl-2-oxoindolin-1-yl)piperidin-1-yl)-1-oxo-4-phenylbutan-2-yl)-3-(methylamino)cyclopentane-carboxamide], the EC50 is reported as ≤ 10 nM. In the case of `CNC(C)(C)CC(=O)N[C@@H](CCc1ccccc1)C(=O)N1CCC(N2C(=O)C(C)(C)c3ccccc32)CC1` [Example 13, (S)-N-(1-(4-(3,3-dimethyl-2-oxoindolin-1-yl)piperidln-1-yl)-1-oxo-4-phenylbutan-2-yl)-3-methyl-3-(methylamino) butanamide], the EC50 is reported as ≤ 10 nM. For `CN[C@@H]1CC[C@H](C(=O)N[C@@H](COc2ccccc2Cl)C(=O)N2CCC(N3C(=O)C(C)(C)c4ccccc43)CC2)C1` [Example 39, (1S,3R)-N-((S)-3-(2-chlorophenoxy)-1-(4-(3,3-dimethyl-2-oxoindolin-1-yl)piperidin-1-yl)-1-oxopropan-2-yl)-3-(methylamino)cyclopentanecarboxamide], the EC50 was ≤ 10 nM. With `CN1CCC(C)(NC(=O)N[C@@H](CCc2ccccc2)C(=O)N2CCC(N3C(=O)C(C)(C)c4ccccc43)CC2)CC1` [Example 69, (S)-1-(1-(4-(3,3-dimethyl-2-oxo-indolin-1-yl)piperidin-1-yl)-1-oxo-4-phenylbutan-2-yl)-3-(1,4-dimethylpiperidin-4-yl)urea] the EC50 was ≤ 10 nM. `CN[C@@H]1CC[C@H](C(=O)N[C@@H](Cc2cccc3ccccc23)C(=O)N2CCC(N3C(=O)C(C)(C)c4ccccc43)CC2)C1` [Example 24, (1S,3R)-N-((S)-1-(4-(3,3-dimethyl-2-oxoindolin-1-yl)piperidin-1-yl)-3-(naphthalen-1-yl)-1-oxopropan-2-yl)-3-(methylamino)cyclopentane-carboxamide] was tested, and the EC50 was ≤ 10 nM. In the case of `CC1(C)C(=O)N(C2CCN(C(=O)[C@H](Cc3ccccc3C(F)(F)F)NC(=O)C3CCNCC3)CC2)c2ccccc21` [Example 78, (S)-N-(1-(4-(3,3-dimethyl-2-oxoindolin-1-yl)piperidin-1-yl)-1-oxo-3-(2-(trifluoro-methyl)phenyl)propan-2-yl)piperidine-4-carboxamide], the EC50 is reported as ≤ 10 nM. With `CN[C@@H]1CC[C@H](C(=O)N[C@@H](Cc2cccc(Cl)c2)C(=O)N2CCC(N3C(=O)C(C)(C)c4ccccc43)CC2)C1` [Example 29, (1S,3R)-N-((S)-3-(3-chlorophenyl)-1-(4-(3,3-dimethyl-2-oxoindolin-1-yl)piperidin-1-yl)-1-oxopropan-2-yl)-3-(methylamino)cyclopentane-carboxamide] the EC50 was ≤ 10 nM. In the case of `CC1(C)C(=O)N(C2CCN(C(=O)[C@H](Cc3ccccc3)NC(=O)[C@@H]3CCCNC3)CC2)c2ccccc21` [Example 82, (R)-N-((S)-1-(4-(3,3-dimethyl-2-oxoindolin-1-yl)piperidin-1-yl)-1-oxo-3-phenylpropan-2-yl) piperidine-3-carboxamide], the EC50 is reported as ≤ 10 nM. For `CN[C@@H]1CC[C@H](C(=O)N[C@@H](Cc2ccc(F)cc2)C(=O)N2CCC(N3C(=O)C(C)(C)c4ccccc43)CC2)C1` [Example 27, (1S,3R)-N-((S)-1-(4-(3,3-dimethyl-2-oxoindolin-1-yl)piperidin-1-yl)-3-(4-fluorophenyl)-1-oxopropan-2-yl)-3-(methylamino)cyclopentane-carboxamide], the EC50 was ≤ 10 nM. `CC1(C)C(=O)N(C2CCN(C(=O)[C@H](CCc3ccccc3)NC(=O)CC3(N)CCCC3)CC2)c2ccccc21` [Example 12, (S)-2-(1-aminocyclopentyl)-N-(1-(4-(3,3-dimethyl-2-oxoindolin-1-yl)piperidin-1-yl)-1-oxo-4-phenylbutan-2-yl)acetamide] was tested, and the EC50 was ≤ 10 nM. In the case of `CN[C@@H]1CC[C@H](C(=O)N[C@@H](Cc2ccc(Cl)cc2)C(=O)N2CCC(N3C(=O)C(C)(C)c4ccccc43)CC2)C1` [Example 21, (1S,3R)—N—((S)-3-(4-chlorophenyl)-1-(4-(3,3-dimethyl-2-oxoindolin-1-yl)piperidin-1-yl)-1-oxopropan-2-yl)-3-(methylamino)cyclopentanecarboxamide], the EC50 is reported as ≤ 10 nM. In the case of `COCCN(C)CCC(=O)N[C@@H](CCc1ccccc1)C(=O)N1CCC(N2C(=O)C(C)(C)c3ccccc32)CC1` [Example 15, (S)-N-(1-(4-(3,3-dimethyl-2-oxoindolin-1-yl)piperidin-1-yl)-1-oxo-4-phenylbutan-2-yl)-3-((2-methoxyethyl)(methyl)amino) propanamide], the EC50 is reported as ≤ 10 nM. In the case of `CN[C@@H]1CC[C@H](C(=O)N[C@@H](CC(C)C)C(=O)N2CCC(N3C(=O)C(C)(C)c4ccccc43)CC2)C1` [Example 33, (1S,3R)-N-((S)-1-(4-(3,3-dimethyl-2-oxoindolin-1-yl)piperidin-1-yl)-4-methyl-1-oxopentan-2-yl)-3-(methylamino) cyclopentanecarboxamide], the EC50 is reported as ≤ 10 nM. With `CN[C@@H]1CC[C@H](C(=O)N[C@@H](Cc2cccc(OC)c2)C(=O)N2CCC(N3C(=O)C(C)(C)c4ccccc43)CC2)C1` [Example 31, (1S,3R)-N-((S)-1-(4-(3,3-dimethyl-2-oxoindolin-1-yl)piperidin-1-yl)-3-(3-methoxyphenyl)-1-oxopropan-2-yl)-3-(methylamino)cyclopentane-carboxamide] the EC50 was ≤ 10 nM. With `CN(C)[C@H]1CCN(C(=O)N[C@@H](CCc2ccccc2)C(=O)N2CCC(N3C(=O)C(C)(C)c4ccccc43)CC2)C1` [Example 67, (S)—N—((S)-1-(4-(3,3-dimethyl-2-oxoindolin-1-yl)piperidin-1-yl)-1-oxo-4-phenylbutan-2-yl)-3-(dimethylamino)pyrrolidine-1-carboxamide] the EC50 was ≤ 10 nM. With `CC1(C)C(=O)N(C2CCN(C(=O)[C@H](CCc3ccccc3)NC(=O)[C@@H]3CCCNC3)CC2)c2ccccc21` [Example 1, (R)—N—((S)-1-(4-(3,3-dimethyl-2-oxoindolin-1-yl)piperidin-1-yl)-1-oxo-4-phenylbutan-2-yl)piperidine-3-carboxamide] the EC50 was ≤ 10 nM. For `CC(C)(N)CNC(=O)N[C@@H](CCc1ccccc1)C(=O)N1CCC(N2C(=O)C(C)(C)c3ccccc32)CC1` [Example 62, (S)-1-(2-amino-2-methylpropyl)-3-(1-(4-(3,3-dimethyl-2-oxoindolin-1-yl)piperidin-1-yl)-1-oxo-4-phenyl-butan-2-yl)urea], the EC50 was ≤ 10 nM. With `CN1CCC[C@@H](C(=O)N[C@@H](CCc2ccccc2)C(=O)N2CCC(N3C(=O)C(C)(C)c4ccccc43)CC2)C1` [Example 20, (R)—N—((S)-1-(4-(3,3-dimethyl-2-oxoindolin-1-yl)piperidin-1-yl)-1-oxo-4-phenylbutan-2-yl)-1-methylpiperidine-3-carboxamide] the EC50 was ≤ 10 nM.

Same assay, conditions: ED50 (nM), Table 15; functional activity toward GPR38 (motilin receptor), (S) versus (R) amino acid linker
In the case of `CN[C@H]1CCN(C(=O)N[C@H](CCc2ccccc2)C(=O)N2CCC(N3C(=O)C(C)(C)c4ccccc43)CC2)C1` [Example 99, (S)—N—((R)-1-(4-(3,3-dimethyl-2-oxoindolin-1-yl)piperidin-1-yl)-1-oxo-4-phenylbutan-2-yl)-3-(methylamino)pyrrolidine-1-carboxamide], the EC50 is reported as 488 nM. With `CC1(C)C(=O)N(C2CCN(C(=O)[C@H](CCc3ccccc3)NC(=O)[C@@H]3CCCNC3)CC2)c2ccccc21` [Example 1, (R)—N—((S)-1-(4-(3,3-dimethyl-2-oxoindolin-1-yl)piperidin-1-yl)-1-oxo-4-phenylbutan-2-yl)piperidine-3-carboxamide] the EC50 was 0.24 nM.
